In publication PMC6158327, “Negative Allosteric Modulators of mGlu7 Receptor as Putative Antipsychotic Drugs” (Frontiers in Molecular Neuroscience, 2018):
Counter-ions that a name gives are not always drawn.

Key:
mGlu7 receptor [1] = molecular target: T1, mGlu7 receptor (Homo sapiens, UniProt Q14831); assay: HTRF cAMP assay: antagonism of L-Glu (EC80) inhibition of forskolin-stimulated cAMP accumulation (NAM profile); type: cell-based; details: inhibition of forskolin-stimulated cAMP accumulation
T1 construct: expressed in transfected cells
Method: (§1) A homogeneous time-resolved fluorescence (HTRF) cAMP dynamic 2 (Cisbio, Codolet, France) assay was performed as previously described ([Chruścicka et al., 2015]) with recombinant cell lines. Briefly, HEK 293 T-REx cells stably expressing mGlu7 receptor, were collected and suspended in Hanks-HEPES buffer. The cell suspension was added to compounds solution with 5 μM of forskolin (final concentration). After 5 min incubation in 37°C, 5 μl of cAMP-d2 conjugate in lysis buffer was added and mixed with the 10 μl cell suspension by means of an automated pipetting system (Tecan Evo 200, Tecan, Mannedorf, Switzerland). Next, 5 μl anti-cAMP cryptate conjugate was added and the fluorescence at 620 and 665 nm was read after 1 h (Tecan Infinite M1000). The results are shown as the 665 nm/620 nm ratio multiplied by 10^4. The detected signal was inversely proportional to the concentration of cAMP in the sample. […] Each experiment was performed three times (n = 3), and each data point was in triplicate.

mGlu7 = molecular target: mGlu7; parameters: method as in Wright et al., 2000; details: ref Wright et al., 2000; read-out: Ki (affinity of mGlu7 for glutamate); cited from earlier work
[2] = test system: prepulse-induced inhibition of the acoustic startle response; assay: Prepulse inhibition of the acoustic startle response; type: in vivo, Wistar rats; details: MK-801 0.3 mg/kg, rats
Method: The procedure was performed according to [Czyrak et al., 2003]. On the day before the experiment, the animals were subjected to a single startle session consisting of two trials, each presented 20 times during the session. During the first trial, a 120 dB, 40 ms pulse was presented, and on the second trial this pulse was preceded by a 75 dB, 20 ms prepulse. On the day of the experiment, the animals were habituated to the background white noise (65 dB) for 5 min (which continued throughout the test), after that the startle session was carried out as described above. Startle response amplitude was defined as the difference between the maximum force detected during a recording window and the force measured immediately before the stimulus onset (the threshold was set at 10 g). For each animal, the amplitudes were averaged separately for each type of trial. The PPI was calculated as the difference between the amplitudes of the pulse (P) and the prepulse + pulse (PP+P), divided by the amplitude of the pulse alone [([P - (PP + P)]/P)×100].

mGlu7 receptor [3] = molecular target: T1, mGlu7 receptor; assay: HTRF cAMP assay: potentiation of forskolin action without agonist (inverse agonist properties); type: cell-based; details: T-REx 293 cells, 5 μM forskolin
Method: as §1
Both compounds dose-dependently potentiated forskolin action, elevating cAMP concentration in the T-REx 293 cells (Figure 2B). […] This effect was not observed for an antagonist of mGluR7 – XAP044.

T1 sequence (Q14831 35-915): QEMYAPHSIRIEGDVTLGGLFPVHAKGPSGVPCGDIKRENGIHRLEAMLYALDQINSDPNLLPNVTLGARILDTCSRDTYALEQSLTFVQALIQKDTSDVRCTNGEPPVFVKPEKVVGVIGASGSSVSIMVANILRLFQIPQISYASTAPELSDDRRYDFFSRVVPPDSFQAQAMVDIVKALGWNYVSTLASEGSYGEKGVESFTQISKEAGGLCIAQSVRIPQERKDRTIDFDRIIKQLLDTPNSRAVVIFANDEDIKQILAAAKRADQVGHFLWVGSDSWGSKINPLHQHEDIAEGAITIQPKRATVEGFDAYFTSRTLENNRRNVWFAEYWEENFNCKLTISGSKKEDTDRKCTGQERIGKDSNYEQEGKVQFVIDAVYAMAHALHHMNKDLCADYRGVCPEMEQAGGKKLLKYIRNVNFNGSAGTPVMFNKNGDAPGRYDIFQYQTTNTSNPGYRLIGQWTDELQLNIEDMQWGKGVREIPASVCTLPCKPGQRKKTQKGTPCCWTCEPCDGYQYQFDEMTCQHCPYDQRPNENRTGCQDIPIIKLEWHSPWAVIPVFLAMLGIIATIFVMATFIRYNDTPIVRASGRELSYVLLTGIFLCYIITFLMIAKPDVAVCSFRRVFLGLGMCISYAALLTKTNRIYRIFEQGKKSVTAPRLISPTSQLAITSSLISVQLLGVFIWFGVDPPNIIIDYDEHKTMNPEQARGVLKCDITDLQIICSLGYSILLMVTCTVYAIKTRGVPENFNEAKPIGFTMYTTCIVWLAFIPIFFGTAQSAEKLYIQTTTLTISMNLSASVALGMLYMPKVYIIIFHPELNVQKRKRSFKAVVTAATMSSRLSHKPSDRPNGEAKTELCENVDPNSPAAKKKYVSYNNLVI

## N[C@@H](CCC(=O)O)C(=O)O [L-Glu]
mGlu7 receptor [1]
  L-Glu EC80 concentration: 6260 µM
mGlu7
  Ki: 869 µM

## C[C@]12N[C@H](Cc3ccccc31)c1ccccc12 [MK-801, (5S,10R)-(+)-5-Methyl-10,11-dihydro-5H-dibenzo[a,d]cyclo-hepten-5,10-imine maleate]
[2]
  Prepulse-induced inhibition of the acoustic startle response after MK-801: 16 % of control

## O=c1c(Oc2ccc(I)cc2)coc2cc(O)ccc12 [XAP044]
mGlu7 receptor [3]
  Potentiation of forskolin action (inverse agonist effect): not observed
